The subject of one experiment is E. faecalis ATCC 29212. Kind of experiment: MIC, broth microdilution (CLSI), ATCC reference strain. In kind it is cell-based, Enterococcus faecalis. Here is the method: The minimum inhibitory concentration (MIC) of synthetic peptides was determined using the broth microdilution method in cation-adjusted Mueller-Hinton broth (MHB2 – Sigma-Aldrich, St. Louis, MO, United States), according to the recommendations of the Clinical and Laboratory Standards Institute ([CLSI, 2012]), against four reference strains, namely, P. aeruginosa ATCC 27853, E. coli ATCC 25922, S. aureus ATCC 25923 and Enterococcus faecalis ATCC 29212. MIC values of peptide 3.1-PP4 were also determined against MDR clinical isolates of P. aeruginosa (PA002, PA004, Pa3, Pa4), E. coli (Ec1, Ec2, EC001, EC002, EC003) and K. pneumoniae (KP004, KP007, KP010). The peptides were tested in the concentration range of 1–1024 μg/mL. The minimum bactericidal concentration (MBC) was determined as previously reported ([Bessa et al., 2018]). According to CLSI guidelines for antimicrobial susceptibility testing, MIC values were determined for all peptides against ATCC reference strains of two Gram-positive (S. aureus ATCC 25923 and E. faecalis ATCC 29212), and two Gram-negative (P. aeruginosa ATCC 27853 and E. coli ATCC 25922) bacterial species, and are shown in Table 2.
In general terms: Dilution methods test growth across graded concentrations, often in twofold steps.

The test system of experiment [1] is HFF-1 cells. In words: Collagen production, Picrosirius Red staining. Particulars: HFF-1, 72 h incubation, Sirius Red, absorbance 540 nm; concentrations representative of the MIC values; compared with C16-PP4. In kind it is cell-based, human. Here is the method:
Collagen production was assessed as described by [Remoué et al. (2013)]. Briefly, HFF-1 cells were seeded and incubated as described previously for the cytotoxicity assay. After the 72 h incubation with peptides, cells were washed with PBS and the Sirius Red dye in picric acid solution (Sigma-Aldrich, St. Louis, MO, United States) was applied to each well. Cells were incubated at 25°C for 1 h under orbital shaking. Dye was then rejected, and cells were washed twice with absolute ethanol (AGA). Once the wells were dry, 1 M aqueous NaOH (Sigma-Aldrich, St. Louis, MO, United States) was added, and absorbance read at 540 nm (Biotek PowerWave XS).
The CBP-AMP conjugates herein addressed include a collagenesis-inducing motif, the amino acid sequence KTTKS whose N-palmitoylated derivative is the well-known “Palmitoyl pentapeptide-4” (C16-PP4) that emerged in 2000 under the commercial name Matrixyl as an active ingredient in skin rejuvenating cosmetics. […] To this end, collagen produced by HFF-1 human fibroblasts was determined by the previously validated Picrosirius Red Staining Protocol ([Remoué et al., 2013]), taking C16-PP4 as reference CBP. […] Results are presented in Figure 3, and expressed as the ratio between collagen produced and the number of viable cells, as the test peptides had different cytotoxicity against the HFF-1 cell line. […]

Experiment [2] relates to preformed biofilms of MDR P. aeruginosa isolates. Kind of experiment: Effect on 24 h preformed biofilms (OD600 of planktonic phase). In kind it is cell-based, Pseudomonas aeruginosa. Particulars: 20 × MIC, vs non-treated biofilm. How it is done: The efficacy of peptide 3.1-PP4 on 24 h preformed biofilms of PA002, PA004, KP004, KP007, and KP010 was also evaluated ([Gomes et al., 2014]). Briefly, biofilms were grown in TSB from a starting inoculum of 1 × 10^6 CFU/mL in 96-well microtiter plates. […] The optical density at 600 nm (OD600) was measured at time 0 and after incubation for 24 h at 37°C. The reduction in the biofilm proliferation was calculated in comparison to the respective non-treated biofilms. Two independent experiments were performed in triplicate.
In the case of control biofilms, the second 24 h growth period occurred in the absence of the peptide. Based on the apparent higher efficiency of peptide 3.1-PP4 to inhibit the formation of K. pneumoniae than P. aeruginosa biofilms, only two MDR isolates of the latter were included in this assay, whereas three MDR K. pneumoniae were tested. Optical density of the planktonic phase, as a measure of biofilm proliferation, was reduced in all peptide-treated biofilms, ranging from 3 to 21% reduction on P. aeruginosa isolates, and from 34 to 56% reduction on K. pneumoniae isolates (Table 4).

Experiment [3] relates to HFF-1 cells. In kind it is cell-based, human. Particulars: 72 h. Here is the method:
Immortalized human foreskin fibroblasts (HFF-1) were grown as a monolayer from passage number 8–16. For routine maintenance, HFF-1 cells were cultured in Dulbecco’s Modified Eagle Medium (DMEM, from Cell Lines Service) supplemented with 15% fetal bovine serum (FBS, from CLS) and 1% antibiotic/antimycotic solution (100 units/mL of penicillin, 100 μg/mL of streptomycin and 0.25 μg/mL of amphotericin B, from Sigma-Aldrich, St. Louis, MO, United States) at 37°C in an humidified atmosphere with 5% CO2. Cells were harvested by trypsinization [0.25% (w/v) trypsin-EDTA4Na, Sigma-Aldrich, St. Louis, MO, United States] twice a week.
The cytotoxicity of synthetic peptides to HFF-1 cells was evaluated using the standard MTT assay. Briefly, cells were seeded at a density of 8 × 10^4 cells/well onto 96-well plate and incubated at 37°C in a 5% CO2 atmosphere. Cells were allowed to grow for 48 h, and serially diluted peptide solutions (0.78–100 μM) were added to the wells. Then, cells were incubated for 72 h at 37°C, after which wells were washed once with phosphate buffered saline (PBS, Sigma-Aldrich, St. Louis, MO, United States), followed by addition of a 0.45 mg/mL MTT solution to each well. Crystals were allowed to form for 1.5 h. Reaction was stopped by rejecting the medium and addition of dimethylsulfoxide (DMSO, Sigma-Aldrich, St. Louis, MO, United States). Absorbance was read at 570 nm (Biotek PowerWave XS).
At the end of the cytotoxicity assays, the number of viable cells was never below that of initially plated cells. As such, data are represented as peptide concentrations causing 50% growth inhibition (IC50) on HFF-1 cells, rather than as lethal dosis values. IC50 values thus obtained are also included in Table 2.

The values that follow come from paper PMC6710338, “Turning a Collagenesis-Inducing Peptide Into a Potent Antibacterial and Antibiofilm Agent Against Multidrug-Resistant Gram-Negative Bacteria” (Frontiers in Microbiology, 2019).

Peptide text beside a SMILES is read from it.

On to `CC(C)C[C@H](NC(=O)[C@H](Cc1c[nH]c2ccccc12)NC(=O)[C@H](CCCCN)NC(=O)[C@H](CC(C)C)NC(=O)[C@H](CC(C)C)NC(=O)[C@H](CCCCN)NC(=O)[C@@H](N)CCCCN)C(=O)N[C@@H](CC(C)C)C(=O)N[C@@H](CCCCN)C(=O)N[C@@H](CC(C)C)C(=O)N[C@@H](CC(C)C)C(=O)N[C@@H](CCCCN)C(=O)N[C@H](C(=O)N[C@H](C(=O)N[C@@H](CCCCN)C(=O)N[C@@H](CO)C(N)=O)[C@@H](C)O)[C@@H](C)O` [Peptide 3.1-PP4] (H-KKLLKWLLKLLKTTKS-NH2; N-terminus assumed), for which the minimal inhibitory concentration (MIC) worked out at 33 µM against E. faecalis ATCC 29212 (ATCC 29212) and 64 µg/mL in the experiment with E. faecalis ATCC 29212 (E. faecalis ATCC 29212, broth microdilution in MHB2, CLSI, range tested 1–1024 μg/mL). Moreover, the “collagenesis-inducing behavior (collagen produced / number of viable cells)” value with HFF-1 cells [1] is listed as “not statistically different from that of Matrixyl (C16-PP4)”. The “% reduction in biofilm proliferation upon treatment” value turned out to be 2.8% in experiment [2] (isolate PA002, 24 h preformed biofilm) and 21% in experiment [2] (isolate PA004, 24 h preformed biofilm). The compound further registered a half-inhibitory concentration (IC50) in the experiment with HFF-1 cells [3] of 69 ± 5 µM.

A word on the MIC: it is the smallest concentration in the dilution series that meets the test's criterion for growth inhibition. As a reminder, the IC50 is the concentration that inhibits the measured activity by half. A low value points to inhibition by little substance.
